Assay results: article PMC12668304, “A Triple Threat Against Ovarian Cancer: Os(II)‐Pt(IV)‐Ceritinib Conjugates for Photodynamic Therapy, Chemotherapy, and Immunogenic Cell Death Induction” (Angewandte Chemie (International Ed. in English), 2025)
Like-named read-outs stand apart in the source and are kept apart here.

How the values were obtained:
MCA205 cells = assay: (Photo-)cytotoxicity on 2D cell monolayers, resazurin assay; assay type: cell-based, mouse; settings: for IC50: MCA205, normoxic, 4 h exposure
Protocol: (§1) The 2D cytotoxicity and phototoxicity profiles of Os‐Pt‐Cer and controls, were evaluated in a panel of cancerous cell lines, including A2780 (ovarian carcinoma), A549 (non‐small cell lung carcinoma), and MCA205 (murine fibrosarcoma), as well as a non‐cancerous retinal pigment epithelial cell line (RPE‐1). Cells were treated with the compounds (0.003–100 µM) for 4 h, either kept in the dark or irradiated at 670 nm (13.5 J cm^− ^2) (Table S4 and Figure S22) or 740 nm (12.6 J cm^− ^2) and viability was assessed 44 h post‐treatment. To verify robustness, the incubation was extended to 72 h. […]
(§2) Human ovarian cancer (A2780) cells and mouse fibrosarcoma cells (MCA205) were cultured in RPMI media. Retinal pigment epithelium (RPE -1) cells were cultured in DMEM/F -12 medium. Lung cancer cells (A549) were cultured in F -12K medium. These cell lines were complemented with 10% of fetal bovine serum, 100 U/mL penicillin -streptomycin mixture, and maintained in a humidified atmosphere […]
(§3) (Photo-)cytotoxicity on 2D cell monolayers
(§4) The cytotoxicity of the compounds was assessed by measuring cell viability using a resazurin assay.
(§5) The cells were seeded in triplicates in 96 well plates with a density of 10 4 cells per well in 100 μL of media. After 24 h, the medium was removed, and the cells were treated with increasing concentrations (0.003 → 100 µM) of the compounds diluted in cell media , achieving a total volume of 100 μL/well.
(§6) The cells were incubated with the compound for 4 h (final incubation time 48 h) or 24 h (final incubation time 72 h). After this time, the media was removed and replaced with 100 μL of fresh medium. For the phototoxicity studies, the cells were exposed to light with an Atlas Photonics LUMOS BIO irradiation system. Each well was constantly irradiated at 670 nm (60 min, 13.50 J·cm-2) or 740 nm (60 min, 12.60 J·cm-2). During the irradiation, the temperature of the plate was maintained at 37 °C. The cells were grown in the incubator for an additional 44 or 48 h, respectively. For the determination of the dark cytotoxicity, the cells were not irradiated and after the medium exchange directly incubated for 44 h.
(§7) After this time, the medium was replaced with fresh medium containing resazurin (0.2 mg/mL). After […]
(§8) 4 h of incubation, the conversion of resazurin into resorufin was determined upon excitation at 540 nm and measurement of its emission at 590 nm using a Cytation 5 Imaging Reader from BioTek. The obtained data was analysed with the GraphPad Prism software […]
(§9) After 24 h of incubation at 37 °C, 5% CO 2, plates were read using a SpectraMaxM2 Microplate Reader ( λexc = 540 nm; λread = 590 nm). Fluorescence data were normalised, and data were fitted using GraphPad Prism Software, and IC 50 was calculated by non - linear regression. Changes in the size and shape of MCTS were monitored every 24 h using Cytation 5 Imaging Reader from BioTek, objective x4.
(§10) Intracellular distribution by confocal fluorescence microscopy
(§11) 10^4 cells/well (A2780 cells) were seeded in complete medium (RPMI) in µ -slide 8 well (Ibidi) (100 µl/well) and left for 24 h to attach to the bottom. Then, the culture medium was removed , and 100 µl of solution of the corresponding complexes (5 µM) was added. The complexes were incubated with the cells for 4 hours. Thereafter, the medium was removed and replaced by RPMI without phenol red , and Hoechst and MitoTracker Green were added at a final concentration of 1 µg/mL. They were incubated with the cells for 30 min in the dark at 37 °C. Images were collected in a sequential mode in a Leica TCS SP8 confocal microscope with a 60x oil immers ion objective, a line average of 4, and a format of […]
(§12) (MTG)→ 500 -550nm, and 488 nm (complexes)→ 680 -730 nm. The confocal pinhole was 1 Airy unit.
(§13) Images were analysed with LAS X Flim FCS software.
(§14) Intracellular distribution by ICP -MS

RPE‐1 cells = assay: as above; assay type: cell-based; settings: RPE‐1, normoxic, dark, 4 h exposure, total 48 h incubation, read-out: IC50 Dark
Protocol: as §1, §2, §3, §4, §5, §6, §7, §8, §9, §10, §11, §12, §13, §14

A2780 MCTSs = assay: Growth kinetics (diameter) of spheroids; assay type: cell-based, human; settings: 0.5 µM, irradiated 1 h at 740 nm, after 72 h
Protocol: A2780 spheroids (ca. 500 µm in diameter) were treated with increasing concentrations of the compounds and after 24 h of incubation, the medium was replaced with fresh medium, and the cells were either kept in the dark or irradiated for 1 h at 740 nm. Images of the spheroids were taken every 24 h for 3 days.
Figure 4 Changes in the growth kinetics of A2780 MCTSs treated with complex Os‐Pt‐Cer, Os, ceritinib, oxaliplatin, and cisplatin at 0.5 and 5 µM for irradiated and dark groups, respectively, and non‐treated as control. Images were collected on 0, 4, 24, and 72 h after the creation of the groups. Scale bar: 1000 µm.
4 h of incubation, the conversion of resazurin into resorufin was determined upon excitation at 540 nm and measurement of its emission at 590 nm using a Cytation 5 Imaging Reader from BioTek. The obtained data was analysed with the GraphPad Prism software
MCTS were cultured using ultra-low attachment 96 wells plates from Corning (Fisher Scientific 15329740). A2780 cells were seeded at a density of 1,500 cells per well in 100 μL of RPMI. Within 2-3 days, MCTSs have approximately 500 μm of diameter. The formation as well as integrity and diameter of the MCTSs were monitored by microscopy.
(Photo-)cytotoxicity on 3D multicellular tumor spheroids (MCTS) […]
Intracellular distribution by confocal fluorescence microscopy […]
Images were analysed with LAS X Flim FCS software. […]

[1] = Mus musculus, MCA-205, dark, total 48 h incubation, read-out: IC50 Dark

| Compound | PI (IC50 dark/IC50 irradiation 740 nm) (MCA205 cells; MCA205) | IC50 (MCA205 cells; Mus musculus, MCA-205, 740 nm (60 min, 12.60 J·cm^−2), total 48 h, read-out: IC50 Irrad. 740 nm) | IC50 (MCA205 cells; [1]) | IC50 (RPE‐1 cells; Homo sapiens) | change of MCTS diameter (A2780 MCTSs) | IC50 (RPE‐1 cells) | IC50 (MCA205 cells; dark, total 48 h incubation, read-out: IC50 Dark) |
| --- | --- | --- | --- | --- | --- | --- | --- |
| C=Cc1c(C)c2cc3nc(c(CC(=O)O)c4[nH]c(cc5nc(cc1[nH]2)C(C)=C5CC)c(C)c4C(=O)O)[C@@H](CCC(=O)O)[C@@H]3C [Ce6, Chlorin e6] | ≥53 | 1.88 ± 0.2 µM | > 100 µM | – | – | – | – |
| Cc1cc(Nc2ncc(Cl)c(Nc3ccccc3S(=O)(=O)C(C)C)n2)c(OC(C)C)cc1C1CCNCC1 [Ceritinib] | – | – | 6.97 ± 0.7 µM | 4.76 ± 0.2 µM | increased with time | – | – |
| O=C1[O][Pt]2([NH][C@@H]3CCCC[C@H]3[NH]2)[O]C1=O [Oxaliplatin] | – | – | – | – | increased with time | > 100 µM | 0.8 ± 0.09 µM |
